ChEMBL document CHEMBL5463729, “Data for DCP probe BAY 1753011” (2023)

Columns and labels:
[1] = target: Mitogen-activated protein kinase kinase kinase 5 (Homo sapiens) (UniProt Q99683); test: Inhibition of ASK1(h) at 10.0 µM in the Eurofins Kinase panel; details: Compound concentration 10.0 uM
[2] = target: Serine/threonine-protein kinase BRSK1 (Homo sapiens) (UniProt Q8TDC3); test: Inhibition of BrSK1(h) at 10.0 µM in the Eurofins Kinase panel; details: Compound concentration 10.0 uM
[3] = target: Calcium/calmodulin-dependent protein kinase kinase 1 (Homo sapiens) (UniProt Q8N5S9); test: Inhibition of CaMKK1(h) at 10.0 µM in the Eurofins Kinase panel; details: Compound concentration 10.0 uM
[4] = target: Cyclin-dependent kinase 14/Cyclin-Y (Homo sapiens) (UniProt O94921+Q8ND76); test: Inhibition of CDK14/cyclinY(h) at 10.0 µM in the Eurofins Kinase panel; format: protein-complex assay; details: Compound concentration 10.0 uM
[5] = target: Cyclin-Y/Cyclin-dependent kinase 16 (Homo sapiens) (UniProt Q00536+Q8ND76); test: Inhibition of CDK16/cyclinY(h) at 10.0 µM in the Eurofins Kinase panel; format: protein-complex assay; details: Compound concentration 10.0 uM
[6] = target: Dual specificity protein kinase CLK2 (Homo sapiens) (UniProt P49760); test: Inhibition of CLK2(h) at 10.0 µM in the Eurofins Kinase panel; details: Compound concentration 10.0 uM
Sequence of Dual specificity protein kinase CLK2 (Homo sapiens) (P49760 whole entry, looked up): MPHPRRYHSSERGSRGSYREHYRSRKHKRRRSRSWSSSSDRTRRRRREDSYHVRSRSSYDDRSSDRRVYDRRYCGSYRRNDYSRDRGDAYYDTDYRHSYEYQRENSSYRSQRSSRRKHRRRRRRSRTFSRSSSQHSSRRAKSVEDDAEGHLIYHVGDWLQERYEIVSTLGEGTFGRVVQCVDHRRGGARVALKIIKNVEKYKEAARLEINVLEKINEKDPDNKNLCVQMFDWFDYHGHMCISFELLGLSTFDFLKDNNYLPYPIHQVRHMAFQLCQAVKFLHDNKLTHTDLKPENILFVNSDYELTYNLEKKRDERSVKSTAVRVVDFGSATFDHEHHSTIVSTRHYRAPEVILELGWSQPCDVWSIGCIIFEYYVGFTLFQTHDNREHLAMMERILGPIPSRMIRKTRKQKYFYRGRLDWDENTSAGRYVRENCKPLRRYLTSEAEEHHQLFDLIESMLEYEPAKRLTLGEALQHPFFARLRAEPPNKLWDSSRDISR

[7] = target: Dual specificity tyrosine-phosphorylation-regulated kinase 2 (Homo sapiens) (UniProt Q92630); test: Inhibition of DYRK2(h) at 10.0 µM in the Eurofins Kinase panel; details: Compound concentration 10.0 uM
[8] = target: Eukaryotic elongation factor 2 kinase (Homo sapiens) (UniProt O00418); test: Inhibition of eEF-2K(h) at 10.0 µM in the Eurofins Kinase panel; details: Compound concentration 10.0 uM
[9] = target: Receptor tyrosine-protein kinase erbB-2 (Homo sapiens) (UniProt P04626); test: Inhibition of ErbB2(h) at 10.0 µM in the Eurofins Kinase panel; details: Compound concentration 10.0 uM
[10] = target: Eukaryotic translation initiation factor 2-alpha kinase 1 (Homo sapiens) (UniProt Q9BQI3); test: Inhibition of HRI(h) at 10.0 µM in the Eurofins Kinase panel; details: Compound concentration 10.0 uM
[11] = target: Insulin receptor (Homo sapiens) (UniProt P06213); test: Inhibition of IR(h) at 10.0 µM in the Eurofins Kinase panel; details: Compound concentration 10.0 uM
[12] = target: Serine/threonine-protein kinase MARK1 (Homo sapiens) (UniProt Q9P0L2); test: Inhibition of MARK1(h) at 10.0 µM in the Eurofins Kinase panel; details: Compound concentration 10.0 uM
[13] = target: Mitogen-activated protein kinase kinase kinase 3 (Homo sapiens) (UniProt Q99759); test: Inhibition of MEKK3(h) at 10.0 µM in the Eurofins Kinase panel; details: Compound concentration 10.0 uM
[14] = target: Serine/threonine-protein kinase MRCK alpha (Homo sapiens) (UniProt Q5VT25); test: Inhibition of MRCKalpha(h) at 10.0 µM in the Eurofins Kinase panel; details: Compound concentration 10.0 uM
[15] = target: Serine/threonine-protein kinase MRCK gamma (Homo sapiens) (UniProt Q6DT37); test: Inhibition of MRCKgamma(h) at 10.0 µM in the Eurofins Kinase panel; details: Compound concentration 10.0 uM
[16] = target: Muscle, skeletal receptor tyrosine-protein kinase (Homo sapiens) (UniProt O15146); test: Inhibition of MuSK(h) at 10.0 µM in the Eurofins Kinase panel; details: Compound concentration 10.0 uM
[17] = target: Phosphorylase b kinase gamma catalytic chain, skeletal muscle/heart isoform (Homo sapiens) (UniProt Q16816); test: Inhibition of PhKgamma1(h) at 10.0 µM in the Eurofins Kinase panel; details: Compound concentration 10.0 uM
[18] = target: RAC-gamma serine/threonine-protein kinase (Homo sapiens) (UniProt Q9Y243); test: Inhibition of PKBgamma(h) at 10.0 µM in the Eurofins Kinase panel; details: Compound concentration 10.0 uM
Sequence of RAC-gamma serine/threonine-protein kinase (Homo sapiens) (Q9Y243 whole entry): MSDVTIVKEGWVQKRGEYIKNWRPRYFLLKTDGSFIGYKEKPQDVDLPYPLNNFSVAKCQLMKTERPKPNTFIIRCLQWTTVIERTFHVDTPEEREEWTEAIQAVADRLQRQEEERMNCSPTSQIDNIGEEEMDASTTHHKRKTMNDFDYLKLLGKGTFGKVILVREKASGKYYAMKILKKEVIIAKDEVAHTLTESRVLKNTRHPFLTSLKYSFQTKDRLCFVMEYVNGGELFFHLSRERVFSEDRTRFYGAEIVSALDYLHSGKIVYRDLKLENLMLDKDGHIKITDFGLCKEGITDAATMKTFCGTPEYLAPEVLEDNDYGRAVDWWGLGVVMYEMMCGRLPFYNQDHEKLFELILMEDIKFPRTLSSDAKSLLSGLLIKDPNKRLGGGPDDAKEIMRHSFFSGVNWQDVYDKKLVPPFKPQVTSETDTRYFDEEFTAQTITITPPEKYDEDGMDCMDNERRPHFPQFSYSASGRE

[19] = target: Protein kinase C beta type (Homo sapiens) (UniProt P05771); test: Inhibition of PKCbetaII(h) at 10.0 µM in the Eurofins Kinase panel; details: Compound concentration 10.0 uM
Sequence of Protein kinase C beta type (Homo sapiens) (P05771 2-671 limits assumed): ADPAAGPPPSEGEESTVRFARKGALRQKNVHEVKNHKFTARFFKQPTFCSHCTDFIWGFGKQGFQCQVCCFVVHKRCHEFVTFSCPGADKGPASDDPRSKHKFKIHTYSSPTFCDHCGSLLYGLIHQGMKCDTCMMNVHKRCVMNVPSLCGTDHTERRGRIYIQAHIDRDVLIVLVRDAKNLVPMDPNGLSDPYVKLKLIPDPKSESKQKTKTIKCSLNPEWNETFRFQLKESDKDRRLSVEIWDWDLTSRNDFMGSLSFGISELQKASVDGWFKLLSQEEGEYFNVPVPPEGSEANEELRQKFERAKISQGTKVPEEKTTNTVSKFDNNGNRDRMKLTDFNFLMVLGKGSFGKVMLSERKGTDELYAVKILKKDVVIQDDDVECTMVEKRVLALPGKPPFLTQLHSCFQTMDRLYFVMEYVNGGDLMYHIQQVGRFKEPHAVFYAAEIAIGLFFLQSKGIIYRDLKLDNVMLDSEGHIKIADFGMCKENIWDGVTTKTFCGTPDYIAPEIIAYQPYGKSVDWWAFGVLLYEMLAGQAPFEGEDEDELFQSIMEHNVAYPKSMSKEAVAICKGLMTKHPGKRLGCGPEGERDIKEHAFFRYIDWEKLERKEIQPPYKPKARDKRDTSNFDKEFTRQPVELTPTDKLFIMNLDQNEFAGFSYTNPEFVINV

[20] = target: Serine/threonine-protein kinase PLK3 (Homo sapiens) (UniProt Q9H4B4); test: Inhibition of Plk3(h) at 10.0 µM in the Eurofins Kinase panel; details: Compound concentration 10.0 uM
[21] = target: Proto-oncogene tyrosine-protein kinase ROS (Homo sapiens) (UniProt P08922); test: Inhibition of Ros(h) at 10.0 µM in the Eurofins Kinase panel; details: Compound concentration 10.0 uM
[22] = target: Tyrosine-protein kinase Srms (Homo sapiens) (UniProt Q9H3Y6); test: Inhibition of SRMS(h) at 10.0 µM in the Eurofins Kinase panel; details: Compound concentration 10.0 uM
Sequence of Tyrosine-protein kinase Srms (Homo sapiens) (Q9H3Y6 whole entry): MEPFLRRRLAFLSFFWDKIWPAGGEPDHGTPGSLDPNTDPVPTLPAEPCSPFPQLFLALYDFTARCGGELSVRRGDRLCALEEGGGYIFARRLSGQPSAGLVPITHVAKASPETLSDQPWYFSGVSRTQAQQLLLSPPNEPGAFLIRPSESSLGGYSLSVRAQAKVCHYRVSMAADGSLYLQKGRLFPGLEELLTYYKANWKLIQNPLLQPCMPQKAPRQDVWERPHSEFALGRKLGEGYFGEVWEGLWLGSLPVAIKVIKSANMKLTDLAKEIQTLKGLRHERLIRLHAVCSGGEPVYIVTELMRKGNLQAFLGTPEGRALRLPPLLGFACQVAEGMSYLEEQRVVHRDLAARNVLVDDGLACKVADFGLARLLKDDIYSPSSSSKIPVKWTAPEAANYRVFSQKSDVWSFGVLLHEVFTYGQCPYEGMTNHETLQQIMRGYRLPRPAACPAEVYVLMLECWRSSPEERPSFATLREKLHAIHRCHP

[23] = target: Serine/threonine-protein kinase 33 (Homo sapiens) (UniProt Q9BYT3); test: Inhibition of STK33(h) at 10.0 µM in the Eurofins Kinase panel; details: Compound concentration 10.0 uM
[24] = target: PI3-kinase p110-alpha/p85-alpha (Homo sapiens) (UniProt P27986+P42336); test: Inhibition of PI3 Kinase (p110a/p85a)(h) at 10.0 µM in the Eurofins Kinase panel; format: protein-complex assay; details: Compound concentration 10.0 uM
[25] = target: Phosphatidylinositol 3-kinase C2 domain-containing subunit gamma (Homo sapiens) (UniProt O75747); test: Inhibition of PI3KC2g(h) at 10.0 µM in the Eurofins Kinase panel; details: Compound concentration 10.0 uM
Sequence of Phosphatidylinositol 3-kinase C2 domain-containing subunit gamma (Homo sapiens) (O75747 whole entry, the tested form may be a part): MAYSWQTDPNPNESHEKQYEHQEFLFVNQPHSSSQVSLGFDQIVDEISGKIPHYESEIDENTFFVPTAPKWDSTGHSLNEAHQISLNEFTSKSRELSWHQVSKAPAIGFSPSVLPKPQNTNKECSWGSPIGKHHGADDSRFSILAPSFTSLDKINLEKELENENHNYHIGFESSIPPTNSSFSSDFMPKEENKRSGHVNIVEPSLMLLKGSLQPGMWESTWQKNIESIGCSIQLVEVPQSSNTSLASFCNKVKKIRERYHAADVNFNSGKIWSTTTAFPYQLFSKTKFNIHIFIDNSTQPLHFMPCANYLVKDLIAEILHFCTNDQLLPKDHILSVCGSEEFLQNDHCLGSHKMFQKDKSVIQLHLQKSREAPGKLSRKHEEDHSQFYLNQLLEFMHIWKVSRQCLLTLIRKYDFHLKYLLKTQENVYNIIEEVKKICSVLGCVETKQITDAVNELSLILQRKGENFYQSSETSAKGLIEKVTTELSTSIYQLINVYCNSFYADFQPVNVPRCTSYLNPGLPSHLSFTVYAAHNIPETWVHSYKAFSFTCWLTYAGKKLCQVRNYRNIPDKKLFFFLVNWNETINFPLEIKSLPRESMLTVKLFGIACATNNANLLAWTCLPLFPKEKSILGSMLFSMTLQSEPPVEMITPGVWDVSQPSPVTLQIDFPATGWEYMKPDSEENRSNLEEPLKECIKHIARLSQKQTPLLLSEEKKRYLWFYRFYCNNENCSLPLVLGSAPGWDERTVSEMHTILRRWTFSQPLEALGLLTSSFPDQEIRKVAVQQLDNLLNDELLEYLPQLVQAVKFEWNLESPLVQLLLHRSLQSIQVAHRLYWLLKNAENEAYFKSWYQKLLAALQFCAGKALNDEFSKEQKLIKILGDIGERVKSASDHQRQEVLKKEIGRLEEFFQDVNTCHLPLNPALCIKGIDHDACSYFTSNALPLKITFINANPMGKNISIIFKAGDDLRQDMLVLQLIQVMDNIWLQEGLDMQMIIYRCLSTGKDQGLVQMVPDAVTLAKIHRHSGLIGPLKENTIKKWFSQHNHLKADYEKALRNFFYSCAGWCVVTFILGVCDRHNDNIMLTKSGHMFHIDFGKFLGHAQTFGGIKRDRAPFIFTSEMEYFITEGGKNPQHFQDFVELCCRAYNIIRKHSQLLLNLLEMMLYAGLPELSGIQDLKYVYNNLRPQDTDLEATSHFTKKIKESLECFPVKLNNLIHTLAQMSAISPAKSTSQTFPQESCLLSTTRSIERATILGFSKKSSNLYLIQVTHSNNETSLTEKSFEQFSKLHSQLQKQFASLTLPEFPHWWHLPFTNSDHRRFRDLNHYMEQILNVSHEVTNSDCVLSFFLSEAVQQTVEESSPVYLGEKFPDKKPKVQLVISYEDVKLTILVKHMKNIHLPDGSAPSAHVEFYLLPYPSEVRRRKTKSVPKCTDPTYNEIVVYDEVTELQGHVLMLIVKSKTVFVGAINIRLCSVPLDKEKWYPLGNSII

[26] = target: Phosphatidylinositol 4-phosphate 5-kinase type-1 gamma (Homo sapiens) (UniProt O60331); test: Inhibition of PIP5K1g(h) at 10.0 µM in the Eurofins Kinase panel; details: Compound concentration 10.0 uM
[27] = target: Sodium-dependent serotonin transporter (Homo sapiens) (UniProt P31645); details: Compound concentration 10.0 uM
Sequence of Sodium-dependent serotonin transporter (Homo sapiens) (P31645 whole entry, looked up): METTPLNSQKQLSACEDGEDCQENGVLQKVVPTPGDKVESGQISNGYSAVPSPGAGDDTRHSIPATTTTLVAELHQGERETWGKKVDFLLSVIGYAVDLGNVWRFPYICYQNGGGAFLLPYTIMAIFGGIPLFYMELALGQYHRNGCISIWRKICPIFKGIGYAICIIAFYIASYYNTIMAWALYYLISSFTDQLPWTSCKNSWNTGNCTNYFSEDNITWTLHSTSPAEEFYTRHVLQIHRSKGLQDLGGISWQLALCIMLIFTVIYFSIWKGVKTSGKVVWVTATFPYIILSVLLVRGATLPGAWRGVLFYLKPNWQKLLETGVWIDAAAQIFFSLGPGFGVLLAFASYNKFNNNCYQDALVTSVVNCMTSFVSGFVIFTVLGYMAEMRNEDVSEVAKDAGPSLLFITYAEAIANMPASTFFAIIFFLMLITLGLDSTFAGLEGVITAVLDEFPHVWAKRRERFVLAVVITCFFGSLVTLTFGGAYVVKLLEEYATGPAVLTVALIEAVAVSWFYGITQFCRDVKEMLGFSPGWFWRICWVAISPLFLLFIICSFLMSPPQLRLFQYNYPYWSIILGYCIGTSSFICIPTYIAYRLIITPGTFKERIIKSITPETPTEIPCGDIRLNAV

[28] = target: T1, Alpha-2A adrenergic receptor (Homo sapiens) (UniProt P08913); details: Compound concentration 10.0 uM
T1 sequence (whole entry): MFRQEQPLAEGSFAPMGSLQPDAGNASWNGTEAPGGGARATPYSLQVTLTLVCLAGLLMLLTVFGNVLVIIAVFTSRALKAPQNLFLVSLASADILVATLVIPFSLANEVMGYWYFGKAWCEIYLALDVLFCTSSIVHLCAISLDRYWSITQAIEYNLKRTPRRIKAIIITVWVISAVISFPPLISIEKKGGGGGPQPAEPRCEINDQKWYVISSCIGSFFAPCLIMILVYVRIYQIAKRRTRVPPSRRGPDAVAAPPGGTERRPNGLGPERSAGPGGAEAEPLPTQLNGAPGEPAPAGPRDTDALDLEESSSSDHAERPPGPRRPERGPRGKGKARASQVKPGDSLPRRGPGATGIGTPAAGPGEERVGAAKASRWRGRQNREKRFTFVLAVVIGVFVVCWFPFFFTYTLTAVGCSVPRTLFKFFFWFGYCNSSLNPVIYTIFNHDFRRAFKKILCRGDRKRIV

[29] = target: 5-hydroxytryptamine receptor 2B (Homo sapiens) (UniProt P41595); details: Compound concentration 10.0 uM
Sequence of 5-hydroxytryptamine receptor 2B (Homo sapiens) (P41595 whole entry): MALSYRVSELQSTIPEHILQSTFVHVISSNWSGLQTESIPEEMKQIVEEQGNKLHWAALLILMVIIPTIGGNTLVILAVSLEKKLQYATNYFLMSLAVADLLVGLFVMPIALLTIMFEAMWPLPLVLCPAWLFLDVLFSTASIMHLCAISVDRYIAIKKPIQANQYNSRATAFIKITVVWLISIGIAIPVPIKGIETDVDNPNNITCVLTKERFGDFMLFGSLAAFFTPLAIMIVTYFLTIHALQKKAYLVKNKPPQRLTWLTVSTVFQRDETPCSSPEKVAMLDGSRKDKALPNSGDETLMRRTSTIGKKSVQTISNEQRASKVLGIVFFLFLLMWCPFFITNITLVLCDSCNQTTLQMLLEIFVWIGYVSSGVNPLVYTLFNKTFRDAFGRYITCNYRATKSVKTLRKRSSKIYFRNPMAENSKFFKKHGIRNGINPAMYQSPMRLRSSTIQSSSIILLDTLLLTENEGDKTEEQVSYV

[30] = target: Sodium-dependent dopamine transporter (Homo sapiens) (UniProt Q01959); details: Compound concentration 10.0 uM
[31] = target: Glutamate receptor 2 (Homo sapiens) (UniProt P42262); details: Rattus norvegicus; Compound concentration 10.0 uM
[32] = target: Ribosomal protein S6 kinase beta-2 (Homo sapiens) (UniProt Q9UBS0); test: Inhibition of p70S6Kbeta(h) at 10.0 µM in the Eurofins Kinase panel; details: Compound concentration 10.0 uM

Compound	inhibition [1]	inhibition [2]	inhibition [3]	inhibition [4]	inhibition [5]	inhibition [6]	inhibition [7]	inhibition [8]	inhibition [9]	inhibition [10]	inhibition [11]	inhibition [12]	inhibition [13]	inhibition [14]	inhibition [15]	inhibition [16]	inhibition [17]	inhibition [18]	inhibition [19]	inhibition [20]	also measured
O=c1n(Cc2cncn2-c2cccc(Cl)c2)nc(-c2ccc(Cl)cc2)n1C[C@H](O)C(F)(F)F	-1.47%	4.95%	1.19%	-0.16%	4.57%	-2.19%	-8.9%	-4.87%	-4.27%	-5.05%	-7.3%	2.63%	7.5%	-4.95%	1.06%	0.19%	7.19%	2.13%	4.87%	-0.3%	inhibition [21]: 3.23%; inhibition [22]: 4.78%; inhibition [23]: 6.15%; inhibition [24]: -1.29%; inhibition [25]: 6.58%; inhibition [26]: -0.37%; inhibition [27]: 14.1%; inhibition [28]: -3.35%; inhibition [29]: 12%; inhibition [30]: 19%; inhibition [31]: 3%; inhibition [32]: 3.66%
C[C@H](O)c1nc(Cn2nc(-c3ccc(Cl)cc3)n(C[C@H](O)C(F)(F)F)c2=O)nn1-c1cccc(Cl)c1 [PECAVAPTAN]	-8.63%	-5.39%	-5.02%	-0.61%	-5.42%	-2.64%	-0.76%	-9.42%	-6.43%	6.64%	-5.21%	0.06%	2.27%	-2.43%	2.11%	-2.36%	-1.63%	-6.69%	2.9%	0.49%	inhibition [21]: -1.01%; inhibition [22]: 7.11%; inhibition [23]: 6.36%; inhibition [24]: -2.88%; inhibition [25]: 6.41%; inhibition [26]: -2.06%; inhibition [27]: 9.13%; inhibition [28]: 8.06%; inhibition [29]: 52%; inhibition [30]: 4%; inhibition [31]: 2%; inhibition [32]: 1.85%
